The values below come from ChEMBL document CHEMBL4229497, “Design and synthesis of benzofuro[3,2-b]pyridin-2(1H)-one derivatives as anti-leukemia agents by inhibiting Btk and PI3Kδ” (Bioorg Med Chem, 2018).

The source made the active and inactive calls. No cut-off for these calls is given here.

The subject of test [1] is Raji. The test can be described thus: Antiproliferative activity against human Raji cells after 48 hrs by MTT assay. The test is classed as functional, cell-based. A general note: Formazan colour is commonly taken as a measure of viable cells.
The test system of test [2] is K562. Description: Antiproliferative activity against human K562 cells at 40 uM after 48 hrs by MTT assay relative to control. Format: functional.
Test [3] has as its system K562. The test can be described thus: Inhibition of PI3K/Akt/mTOR pathway in human K562 cells assessed as reduction in Akt phosphorylation at Ser-473 residue at 1 uM after 24 hrs by Western blot analysis. The test is classed as cell-based.
The subject of test [4] is HL-60. The test can be described thus: Antiproliferative activity against human HL60 cells after 48 hrs by MTT assay. Format: functional, cell-based. The following applies: HL-60, 48 h.
Test [5] deals with Tyrosine-protein kinase BTK (Homo sapiens, UniProt Q06187). Description: Inhibition of recombinant full length human N-terminal His tagged BTK expressed in baculovirus infected Sf9 cells using poly (4:1 Glu, Tyr) as substrate after 60 mins by ADP-Glo assay. (In general: ADP-Glo turns the ADP formed in a reaction into a luminescent signal.)
For test [6], the target named is PI3-kinase p110-delta/p85-alpha (Homo sapiens) (UniProt P27986+O00329). Description: Inhibition of recombinant human full length N-terminal His-tagged PI3K p110delta/p85alpha at 200 nM using lipid substrate after 60 mins by ADP-Glo assay relative to control. The test is classed as protein-complex assay.
In test [7] the test system is K562. Description: Antiproliferative activity against human K562 cells after 48 hrs by MTT assay. Format: functional, cell-based. The following applies: K562, 48 h.
The target in test [8] is Serine/threonine-protein kinase mTOR (Homo sapiens, UniProt P42345). Description: Inhibition of recombinant human N-terminal FLAG-tagged mTOR (1362-end residues).
For test [9], the target named is PI3-kinase p110-delta/p85-alpha (Homo sapiens, UniProt O00329). The test can be described thus: Inhibition of recombinant human full length N-terminal His-tagged PI3K p110delta/p85alpha using lipid substrate after 60 mins by ADP-Glo assay. The test is classed as protein-complex assay.
The target of test [10] is PI3-kinase p110-alpha/p85-alpha (Homo sapiens, UniProt P42336). Description: Inhibition of recombinant human full length His-tagged PI3K p110alpha/p85alpha expressed in baculovirus expression system using lipid substrate after 60 mins by ADP-Glo assay.
The target in a further test is PI3K p110 beta/p85 alpha (Homo sapiens, UniProt P42338). Description: Inhibition of recombinant full length human N-terminal His6-tagged PI3K p110beta/p85alpha expressed in baculovirus infected Sf21 cells using lipid substrate after 60 mins by ADP-Glo assay.
Test [11] addresses T1, Phosphatidylinositol 4,5-bisphosphate 3-kinase catalytic subunit gamma isoform (Homo sapiens, UniProt P48736). Description: Inhibition of recombinant human full length His-tagged PI3K p110gamma expressed in baculovirus expression system using lipid substrate after 60 mins by ADP-Glo assay.
The test system of test [12] is Raji. The test can be described thus: Antiproliferative activity against human Raji cells at 40 uM after 48 hrs by MTT assay relative to control. The test is classed as functional.
For test [13], the system named is HL-60. The test can be described thus: Antiproliferative activity against human HL60 cells at 40 uM after 48 hrs by MTT assay relative to control. The test is classed as functional.
In test [14] the target is Phosphatidylinositol 4,5-bisphosphate 3-kinase catalytic subunit beta isoform (Homo sapiens, UniProt P42338). The test can be described thus: Inhibition of PI3Kbeta (unknown origin).
Test [15] concerns the target T1, Phosphatidylinositol 4,5-bisphosphate 3-kinase catalytic subunit gamma isoform. The test can be described thus: Inhibition of PI3Kgamma (unknown origin).
Test [16] deals with Phosphatidylinositol 4,5-bisphosphate 3-kinase catalytic subunit alpha isoform (Homo sapiens, UniProt P42336). Description: Inhibition of PI3Kalpha (unknown origin).
A short description of test [17]: Inhibition of PI3K (unknown origin). Set-up: species or system Homo sapiens.

Chain of Tyrosine-protein kinase BTK (Q06187 whole entry): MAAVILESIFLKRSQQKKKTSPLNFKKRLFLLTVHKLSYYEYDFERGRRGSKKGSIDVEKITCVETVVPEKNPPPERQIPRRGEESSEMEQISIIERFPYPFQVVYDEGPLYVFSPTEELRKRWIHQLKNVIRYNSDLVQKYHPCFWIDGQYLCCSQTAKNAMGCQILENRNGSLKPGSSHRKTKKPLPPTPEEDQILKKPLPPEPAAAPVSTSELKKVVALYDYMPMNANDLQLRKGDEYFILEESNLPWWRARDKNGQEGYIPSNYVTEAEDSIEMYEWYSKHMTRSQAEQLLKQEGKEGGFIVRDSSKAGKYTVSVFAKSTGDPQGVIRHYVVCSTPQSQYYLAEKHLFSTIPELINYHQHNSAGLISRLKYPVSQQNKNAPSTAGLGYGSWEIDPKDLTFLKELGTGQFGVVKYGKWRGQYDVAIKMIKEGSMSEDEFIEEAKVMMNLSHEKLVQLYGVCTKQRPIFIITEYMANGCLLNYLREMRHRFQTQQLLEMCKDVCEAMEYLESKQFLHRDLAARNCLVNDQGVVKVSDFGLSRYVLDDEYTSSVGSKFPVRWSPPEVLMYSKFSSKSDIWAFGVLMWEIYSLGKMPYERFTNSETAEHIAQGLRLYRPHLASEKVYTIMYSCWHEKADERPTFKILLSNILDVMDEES
T1 sequence (P48736 whole entry, canonical isoform): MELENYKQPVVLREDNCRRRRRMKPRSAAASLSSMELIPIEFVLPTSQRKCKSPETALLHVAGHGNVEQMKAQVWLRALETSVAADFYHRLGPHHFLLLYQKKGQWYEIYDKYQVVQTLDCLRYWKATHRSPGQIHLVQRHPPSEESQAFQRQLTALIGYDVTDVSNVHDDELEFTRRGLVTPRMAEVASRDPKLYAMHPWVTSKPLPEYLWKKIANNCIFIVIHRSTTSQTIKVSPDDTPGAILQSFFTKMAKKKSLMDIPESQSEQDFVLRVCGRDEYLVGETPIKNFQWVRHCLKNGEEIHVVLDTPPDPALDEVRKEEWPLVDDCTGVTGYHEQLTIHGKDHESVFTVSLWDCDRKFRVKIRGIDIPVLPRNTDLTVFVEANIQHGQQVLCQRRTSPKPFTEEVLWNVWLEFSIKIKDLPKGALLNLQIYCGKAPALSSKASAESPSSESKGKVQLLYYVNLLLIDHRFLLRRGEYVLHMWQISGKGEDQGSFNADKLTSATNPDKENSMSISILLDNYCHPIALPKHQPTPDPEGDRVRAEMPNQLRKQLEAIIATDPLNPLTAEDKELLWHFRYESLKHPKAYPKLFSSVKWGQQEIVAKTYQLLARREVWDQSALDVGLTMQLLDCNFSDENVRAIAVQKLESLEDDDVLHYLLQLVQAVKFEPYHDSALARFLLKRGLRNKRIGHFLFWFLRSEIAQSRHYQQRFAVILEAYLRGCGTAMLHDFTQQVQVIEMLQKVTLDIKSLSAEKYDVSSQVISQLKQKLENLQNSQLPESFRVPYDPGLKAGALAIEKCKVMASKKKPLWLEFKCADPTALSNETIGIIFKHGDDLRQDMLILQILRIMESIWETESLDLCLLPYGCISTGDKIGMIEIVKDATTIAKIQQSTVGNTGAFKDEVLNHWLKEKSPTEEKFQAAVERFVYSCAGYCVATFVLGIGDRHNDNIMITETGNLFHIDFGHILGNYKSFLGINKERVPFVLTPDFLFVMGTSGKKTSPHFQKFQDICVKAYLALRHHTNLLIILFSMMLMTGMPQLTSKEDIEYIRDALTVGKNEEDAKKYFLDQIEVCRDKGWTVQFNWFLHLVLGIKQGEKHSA
Chain of PI3-kinase p110-delta/p85-alpha (P27986 whole entry): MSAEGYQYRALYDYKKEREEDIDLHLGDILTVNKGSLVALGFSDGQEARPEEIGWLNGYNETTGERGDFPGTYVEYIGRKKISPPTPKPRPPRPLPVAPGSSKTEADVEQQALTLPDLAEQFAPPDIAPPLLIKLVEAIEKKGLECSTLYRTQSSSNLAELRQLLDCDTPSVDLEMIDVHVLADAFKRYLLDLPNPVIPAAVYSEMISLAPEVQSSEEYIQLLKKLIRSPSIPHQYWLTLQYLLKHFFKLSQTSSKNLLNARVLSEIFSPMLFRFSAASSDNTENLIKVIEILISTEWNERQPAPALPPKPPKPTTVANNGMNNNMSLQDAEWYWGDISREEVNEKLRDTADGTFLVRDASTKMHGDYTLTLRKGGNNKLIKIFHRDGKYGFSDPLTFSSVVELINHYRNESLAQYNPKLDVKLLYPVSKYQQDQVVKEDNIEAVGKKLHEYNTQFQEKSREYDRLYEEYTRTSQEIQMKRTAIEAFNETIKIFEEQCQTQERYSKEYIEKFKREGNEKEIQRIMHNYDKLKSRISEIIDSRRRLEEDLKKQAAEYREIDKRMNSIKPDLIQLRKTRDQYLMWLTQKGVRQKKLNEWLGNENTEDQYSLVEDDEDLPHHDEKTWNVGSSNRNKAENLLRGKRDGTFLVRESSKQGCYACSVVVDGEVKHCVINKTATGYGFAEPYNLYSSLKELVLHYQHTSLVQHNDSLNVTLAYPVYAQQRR
Chain of PI3-kinase p110-delta/p85-alpha (O00329 whole entry): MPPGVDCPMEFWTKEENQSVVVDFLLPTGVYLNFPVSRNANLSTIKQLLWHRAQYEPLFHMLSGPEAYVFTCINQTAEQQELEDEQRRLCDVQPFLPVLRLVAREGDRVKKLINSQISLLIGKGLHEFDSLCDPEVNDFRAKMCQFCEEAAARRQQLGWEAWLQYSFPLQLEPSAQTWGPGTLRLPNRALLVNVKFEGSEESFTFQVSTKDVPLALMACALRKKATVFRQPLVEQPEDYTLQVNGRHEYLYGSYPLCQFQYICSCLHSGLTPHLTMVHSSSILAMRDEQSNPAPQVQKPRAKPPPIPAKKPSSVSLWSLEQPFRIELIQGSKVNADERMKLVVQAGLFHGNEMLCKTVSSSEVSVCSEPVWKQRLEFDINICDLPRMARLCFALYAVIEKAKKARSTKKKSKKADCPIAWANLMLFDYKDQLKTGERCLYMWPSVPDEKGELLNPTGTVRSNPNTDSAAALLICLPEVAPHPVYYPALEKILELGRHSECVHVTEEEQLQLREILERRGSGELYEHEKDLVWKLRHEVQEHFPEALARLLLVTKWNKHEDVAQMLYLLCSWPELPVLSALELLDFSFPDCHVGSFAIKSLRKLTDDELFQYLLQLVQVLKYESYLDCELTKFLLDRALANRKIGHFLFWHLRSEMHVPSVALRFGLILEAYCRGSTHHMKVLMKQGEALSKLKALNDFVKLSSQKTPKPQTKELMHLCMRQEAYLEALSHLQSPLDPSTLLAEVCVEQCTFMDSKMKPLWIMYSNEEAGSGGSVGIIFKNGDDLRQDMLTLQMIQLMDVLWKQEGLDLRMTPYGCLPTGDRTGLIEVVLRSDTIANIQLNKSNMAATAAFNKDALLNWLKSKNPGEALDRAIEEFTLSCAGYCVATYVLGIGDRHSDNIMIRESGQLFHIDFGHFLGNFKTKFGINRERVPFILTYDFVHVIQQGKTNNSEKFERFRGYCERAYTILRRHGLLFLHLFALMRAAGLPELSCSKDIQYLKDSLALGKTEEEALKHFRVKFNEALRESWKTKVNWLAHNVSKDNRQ
Chain of PI3K p110 beta/p85 alpha (P27986 whole entry, canonical isoform): as the sequence (P27986 whole entry) above
Chain of PI3K p110 beta/p85 alpha (P42338 whole entry, canonical isoform): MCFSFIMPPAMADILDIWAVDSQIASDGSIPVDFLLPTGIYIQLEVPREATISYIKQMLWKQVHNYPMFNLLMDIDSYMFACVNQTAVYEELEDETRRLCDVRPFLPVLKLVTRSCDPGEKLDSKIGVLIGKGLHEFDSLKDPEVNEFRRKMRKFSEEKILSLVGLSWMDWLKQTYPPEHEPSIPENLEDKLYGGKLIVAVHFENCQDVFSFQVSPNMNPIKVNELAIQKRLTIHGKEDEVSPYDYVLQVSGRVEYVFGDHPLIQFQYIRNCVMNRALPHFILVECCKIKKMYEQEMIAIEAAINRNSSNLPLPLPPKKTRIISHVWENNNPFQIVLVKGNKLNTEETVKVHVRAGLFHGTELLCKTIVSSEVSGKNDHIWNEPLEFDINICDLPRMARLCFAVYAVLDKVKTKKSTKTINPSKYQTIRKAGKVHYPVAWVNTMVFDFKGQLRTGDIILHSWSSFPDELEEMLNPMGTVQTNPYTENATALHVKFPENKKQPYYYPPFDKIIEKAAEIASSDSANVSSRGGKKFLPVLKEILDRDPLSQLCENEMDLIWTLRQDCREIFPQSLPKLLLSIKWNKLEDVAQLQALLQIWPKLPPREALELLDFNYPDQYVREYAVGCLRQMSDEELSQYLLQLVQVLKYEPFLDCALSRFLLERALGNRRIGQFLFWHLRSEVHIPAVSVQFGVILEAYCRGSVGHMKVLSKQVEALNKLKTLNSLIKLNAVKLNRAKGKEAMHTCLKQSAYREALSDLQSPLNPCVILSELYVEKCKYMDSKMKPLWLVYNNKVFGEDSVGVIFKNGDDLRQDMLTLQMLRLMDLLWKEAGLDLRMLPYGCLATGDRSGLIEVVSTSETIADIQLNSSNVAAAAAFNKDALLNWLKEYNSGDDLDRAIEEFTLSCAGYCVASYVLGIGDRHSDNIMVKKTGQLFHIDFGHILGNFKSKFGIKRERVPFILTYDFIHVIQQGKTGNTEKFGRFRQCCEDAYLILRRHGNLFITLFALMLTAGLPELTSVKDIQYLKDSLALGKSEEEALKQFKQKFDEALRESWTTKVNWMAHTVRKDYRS
Chain of Phosphatidylinositol 4,5-bisphosphate 3-kinase catalytic subunit beta isoform (P42338 whole entry, canonical isoform): as above

Usually IC50 stands for the point on the concentration scale where inhibition reaches its midpoint. On to `COc1ccc(-c2ccc3oc4ccc(=O)n(-c5ccc(NC(C)=O)cc5)c4c3c2)cn1`, for which the half-inhibitory concentration (IC50) in the test on Raji [1] is 39 µM. Further, the Activity in the test on K562 [2] was 47.5%.

A word on the inhibition: it is the share of the control response that was lost under treatment. In the case of `C=CC(=O)Nc1ccc(-n2c(=O)ccc3oc4ccc(-c5cnn(C)c5)cc4c32)cc1`, in the test with K562 [3], the “Reduction in Akt Ser-473 phosphorylation” value was “Active”. Also, the 50% inhibitory concentration (IC50) in the test on Raji [1] stood at 2.4 µM; with HL-60 [4], 12.6 µM; in [5], 0.217 µM; in the test with K562 [7], 9.6 µM. Moreover, the inhibition in [6] was 4.8%.

With `CCN(CC)CC(=O)Nc1ccc(-n2c(=O)ccc3oc4ccc(-c5ccc(OC)nc5)cc4c32)cc1`, the IC50 with Raji [1] was 15.3 µM; in the test on HL-60 [4], 8.4 µM; with K562 [7], 5.9 µM.

With `C=CC(=O)Nc1ccc(-n2c(=O)ccc3oc4ccc(-c5cccnc5)cc4c32)cc1`, the half-maximal inhibitory concentration (IC50) in test [8] amounted to 0.228 µM; in the test on Raji [1] it was 5.2 µM; in the test with HL-60 [4], 4.2 µM; in [9] it was 0.275 µM; in test [5], 0.136 µM; in test [10] it was 0.254 µM. Also, the IC50 at PI3K p110 beta/p85 alpha was 0.838 µM; in the test on K562 [7], 11.1 µM; in test [11], 0.684 µM. Further, the “Reduction in Akt Ser-473 phosphorylation” value in the test on K562 [3] was “Active”. Moreover, the inhibition in test [6] was 45.8%.

`C=CC(=O)Nc1ccc(-n2c(=O)ccc3oc4ccc(-c5cccc6[nH]ccc56)cc4c32)cc1`: the values for the IC50 in the test on Raji [1], with HL-60 [4] and with K562 [7] were 15.7 µM, 7.3 µM and 10.2 µM, respectively.

As for `COc1ccc(-c2ccc3oc4ccc(=O)n(-c5ccc(NC(=O)CN6CCCCC6)cc5)c4c3c2)cn1`, the “Reduction in Akt Ser-473 phosphorylation” value in the test on K562 [3] was “Active”. For the same compound, the half-inhibitory concentration (IC50) with Raji [1] stood at 8.01 µM; in the test on HL-60 [4], 4.9 µM; in [5] it was 0.106 µM; with K562 [7] it was 2.6 µM. Also, the inhibition result in test [6] is “inactive”.

Take `C=CC(=O)Nc1ccc(-n2c(=O)ccc3oc4ccc(-c5ccc(OC)nc5)cc4c32)cc1`: in the test with K562 [3], the “Reduction in Akt Ser-473 phosphorylation” value was “Active”. Also, the values for the half-inhibitory concentration (IC50) in the test on HL-60 [4] and with K562 [7] were 17.9 µM and 31 µM, respectively. In the test on Raji [12], this compound yielded an Activity of 35%. Also, the inhibition entry in [6] is “inactive”.

Turning to `COc1ccc(-c2ccc3oc4ccc(=O)n(-c5ccc(NC(=O)CN6CCNCC6)cc5)c4c3c2)cn1`, the “Reduction in Akt Ser-473 phosphorylation” value in the test on K562 [3] is “Active”. The half-inhibitory concentration (IC50) with Raji [1] came out at 5.84 µM; in the test on HL-60 [4] it was 5.5 µM; in the test with K562 [7], 1.3 µM. Moreover, the inhibition entry in [6] was “inactive”.

With `COc1ccc(-c2ccc3oc4ccc(=O)n(-c5ccc(NC(=O)CN6CCOCC6)cc5)c4c3c2)cn1`, the IC50 with Raji [1] came out at 13.2 µM; in the test with HL-60 [4], 4 µM; in test [5], 0.2 µM; in the test with K562 [7] it was 10 µM. The inhibition in test [6] is 11.6%.

As for `Cn1c(=O)n(-c2ccc(C(C)(C)C#N)cc2)c2c3cc(-c4cnc5ccccc5c4)ccc3ncc21` [DACTOLISIB], in the test on K562 [3], the “Reduction in Akt Ser-473 phosphorylation” value is “Active”. In addition, the half-maximal inhibitory concentration (IC50) was 4.3 µM in the test with Raji [1], 1 µM in the test with HL-60 [4] and 5.7 µM with K562 [7]. In [6], the inhibition was determined as 64.4%.

For the compound `COc1ccc(-c2ccc3oc4ccc(=O)n(-c5ccc(NS(C)(=O)=O)cc5)c4c3c2)cn1`, the 50% inhibitory concentration (IC50) in the test with Raji [1] was determined as 16.7 µM; in the test with HL-60 [4], 15.5 µM; in the test on K562 [7], 16.2 µM.

With `C=CC(=O)Nc1ccc(-n2c(=O)ccc3oc4ccc(-c5ccc(O)cc5)cc4c32)cc1`, the half-maximal inhibitory concentration (IC50) in the test with Raji [1] came to 3.9 µM; in the test with HL-60 [4], 3.9 µM; with K562 [7], 5.7 µM. Moreover, in test [6], the inhibition came to 4.2%.

Regarding `COc1ccc(-c2ccc3oc4ccc(=O)n(-c5ccc(N)cc5)c4c3c2)cn1`, the Activity amounted to 17.6% with K562 [2], 41.5% with Raji [12] and 21.5% in the test on HL-60 [13].

As to `COc1ccc(-c2ccc3ncc4c(c3c2)n(-c2ccc(N3CCNCC3)c(C(F)(F)F)c2)c(=O)n4C)cn1` [BGT-226 FREE BASE], the concentration for half-maximal inhibition (IC50) in [14] stood at 0.063 µM; in [15], 0.038 µM; in test [16], 0.004 µM.

In turn, `COc1ccc(-c2ccc3oc4ccc(=O)n(-c5ccc([N+](=O)[O-])cc5)c4c3c2)cn1` came in with an Activity with K562 [2] of 28.8%. The result in the test on Raji [12] and in the test with HL-60 [13] was inactive.

In test [17], `C=CC(=O)N1CCc2ccc(-n3c(=O)ccc4cnc5ccc(-c6cnn(C)c6)cc5c43)cc21` had an IC50 of 0.69 µM.

As for `COc1ccc(-c2ccc3oc4ccc(=O)n(-c5ccc(NC(=O)CN(C)C)cc5)c4c3c2)cn1`, the “Reduction in Akt Ser-473 phosphorylation” value in the test with K562 [3] is “Active”. The IC50 with Raji [1] worked out at 12.8 µM; with HL-60 [4] it was 4 µM; in test [5] it was 0.237 µM; with K562 [7] it was 4.1 µM. In addition, in [6], the inhibition result was “inactive”.

As for `COc1ccc(-c2ccc3oc4ccc(=O)n(-c5ccc(NCC(=O)O)cc5)c4c3c2)cn1`, the figures for the IC50 with Raji [1] and in the test with HL-60 [4] were 39.5 µM and 12.7 µM, respectively. This compound also showed an Activity with K562 [2] of 46%.

For the compound `COc1ccc(-c2ccc3oc4ccc(=O)n(-c5ccc(NC(=O)CN6CCN(C)CC6)cc5)c4c3c2)cn1`, the IC50 is 9.72 µM in the test with Raji [1], 3.2 µM in the test on HL-60 [4], 0.139 µM in [5] and 4.7 µM in the test on K562 [7]. Moreover, the inhibition result in test [6] is “inactive”.

For `C=CC(=O)Nc1ccc(-n2c(=O)ccc3oc4ccc(-c5ccc(C(=O)O)cc5)cc4c32)cc1`, in the test on K562 [2], the result was inactive. Moreover, the Activity in the test on Raji [12] was 38%; in the test on HL-60 [13], 22.2%.

With `CNCC(=O)Nc1ccc(-n2c(=O)ccc3oc4ccc(-c5ccc(OC)nc5)cc4c32)cc1`, the values for the IC50 in the test with Raji [1], in the test with HL-60 [4] and with K562 [7] were 6.26 µM, 3.2 µM and 3.5 µM, respectively.

For `C=CC(=O)Nc1ccc(-n2c(=O)ccc3oc4ccc(-c5cccc(N)c5)cc4c32)cc1`, the IC50 came to 5.3 µM in the test with Raji [1], 10 µM in the test on HL-60 [4] and 6.9 µM with K562 [7]. Further, the inhibition result in test [6] is “inactive”.

As to `CCOC(=O)CNc1ccc(-n2c(=O)ccc3oc4ccc(-c5ccc(OC)nc5)cc4c32)cc1`, the figures for the Activity in the test with K562 [2] and with HL-60 [13] were 29.4% and 46%, respectively. Further, the outcome in the test with Raji [12] was inactive.

For `COc1ccc(-c2ccc3oc4ccc(=O)n(-c5ccc(NC(=O)C(F)(F)F)cc5)c4c3c2)cn1`, the Activity in the test with Raji [12] is on record as 10%; in the test with HL-60 [13], 35.4%. In the test with K562 [7], this compound yielded an IC50 of 17 µM.

Regarding `COc1ccc(-c2ccc3oc4ccc(=O)n(-c5ccc(NC(=O)CN6CCCC6)cc5)c4c3c2)cn1`, the IC50 in the test on Raji [1] stood at 11.3 µM; with HL-60 [4], 5.4 µM; in [5], 0.183 µM; with K562 [7], 6.5 µM. Besides, the inhibition entry in test [6] was “inactive”.

On to `C=CC(=O)Nc1ccc(-n2c(=O)ccc3oc4ccc(-c5cccc([N+](=O)[O-])c5)cc4c32)cc1`, for which the concentration for half-maximal inhibition (IC50) in the test on Raji [1] came to 25 µM; in the test on HL-60 [4] it was 28.2 µM. This compound came in with an Activity with K562 [2] of 39%.

In the case of `C=CC(=O)N1CCC[C@@H](n2nc(-c3ccc(Oc4ccccc4)cc3)c3c(N)ncnc32)C1` [IBRUTINIB], the IC50 was determined as 14.2 µM in the test with Raji [1], 8 µM in the test on HL-60 [4] and 7.5 µM in the test on K562 [7].

In the test with K562 [2], `C=CC(=O)Nc1ccc(-n2c(=O)ccc3oc4ccc(-c5ccc(OC)cc5)cc4c32)cc1` displayed an Activity of 28.3%. The outcome in the test on Raji [12] was inactive.
